The values below come from patent US10385108B2, “Peptide analogs of alpha-melanocyte stimulating hormone” (Genzyme Corporation, priority 2008, dated 2019).

Several values for one entry are separate records, joined by “and”; a condition that tells them apart may be missing. Equal entries are not always repeated. Where a SMILES comes first, the peptide text is derived from it. [ ]: non-standard residue; d: D form. The star is where a group is joined. X1 = CCCCCCCCCCCCCCCCCC(=O)NCCCCCCN*

Experiment [1] concerns B16-F1 murine melanoma cells. Nature of the experiment: Intracellular cAMP in B16-F1 melanoma cells. It counts as cell-based. Particulars: for cAMP levels (in words): peptide at 1 μg/ml; for EC50: B16-F1 cells, 10^-4-10^-11 M, 30 min, IBMX. The protocol: B16-F1 (melanoma cell line) cells from American Type Culture Collection (Manassas, Va.) were seeded into flat bottom 96 well plates at 5×10^4/well and cultured overnight in DMEM (Cambrex, Walkersville, Md.) supplemented with 2 mM glutamine, antibiotics (100 U/ml penicillin and 100 […]) and 10% heat-inactivated fetal bovine serum (Invitrogen, Grand Island, N.Y.). […] Cells were lysed and intracellular cAMP levels were measured by an enzyme immunoassay kit (Amersham Biosciences, Piscataway, N.J.). Forskolin (Sigma, St. Louis, Mo.) at 100 μM served as positive controls.
cAMP levels in B16-F1 melanoma cells after treatment with native α-MSH, RI α-MSH, or a scrambled control peptide were examined. The […] melanoma cell line expresses a high number of MCR1 receptors (3000-4000 receptors/cell) compared with macrophages cell lines which express only 100-200 receptors/cell. Therefore we selected to examine the effect of the RI α-MSH treatment on the melanoma cell line. Murine melanoma B16-F1 cells were treated with native α-MSH, RI α-MSH, or control scrambled peptide at concentrations 1 pg/ml-1 μg/ml. After 30 min, cells were lysed and intracellular cAMP was measured by an enzyme immunoassay. […] However, a higher concentration of RI α-MSH (100 ng/ml) was necessary to increase cAMP compared with native α-MSH which increased cAMP at a 10 pg/ml concentration. This difference in concentration of peptide necessary to increase cAMP levels may be the result of the binding affinity to the MCR1 receptor.
Murine melanoma B16-F1 cells were treated with native α-MSH, RI α-MSH, scrambled peptide control, KPV, or alanine substituted peptides of RI α-MSH at 1 μg/ml (FIG. 7B). […] Peptides designated 810, 811, and 812 have alanine substitutions in the central core tetrapeptide sequence (D-Trp D-Arg D-Phe D-His region; AA 5-8) (variant disclosed in SEQ ID NO:2) proposed to be involved in native α-MSH binding to the melanocortin receptor and its biological activity. […] The residues in the core tetrapeptide (wrfh) (variant disclosed in SEQ ID NO:2) and to a lesser extent, the methionine 4 of RI-MSH are critical for binding to MC1R.
B16-F1 murine melanoma cells were cultured into 96 well plates 5×10^4 cells/well overnight in media with L-glutamine and pen/strep and FBS. Media was removed and new media with IBMX was added to the cells for 1 hr. Cells were then treated with RI α-MSH, or RI α-MSH peptide analogs (890, 891, 892, 893, 894 or 895). Cells were lysed after 30 min using a cAMP assay kit and supernatant were used in the assay. Forskolin at 10 μM served as positive controls.
Intracellular cAMP was measured using a cAMP competition Assay Kit (Amersham Biosciences). All cell lysate samples were diluted 1:100 for analysis.
Murine melanoma B16-F1 cells were treated with RI α-MSH, or RI α-MSH analogs (869, 872, 880, 878, 886 and 890-895) at a concentration range of 10^−4-10^−11 M. cAMP levels from cells treated with RI α-MSH, or RI α-MSH analogs. […] See FIG. 22 for graphical data and Table 2 for EC50 data.

Experiment [2] deals with MC1R (Homo sapiens, UniProt Q01726). Nature of the experiment: Competitive binding with 125I-NDP-MSH, HEK293 membrane preparations, MC1R.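 As to all read-outs here: Read-out: receptor-bound radioligand retained by filtration and counted.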 Particulars: for Ki: Ki MC1R, competition with 125I-NDP-MSH.
Protocol: (§1) Binding analysis was done by Cerep laboratories (Paris, France) with coded samples.
(§2) The mixtures were filtered through 96-well GFC filters (Millipore, Billerica, Mass.), washed 3 times with binding buffer without BSA, dried and counted.
(§3) A competitive binding assay using a MCR panel including MCR 1, 3, 4, and 5 was performed.
Experiment [3] addresses MC3R (Homo sapiens, UniProt P41968). Briefly: Competitive binding with 125I-NDP-MSH, HEK293 membrane preparations, MC3R.
Protocol: as §1, §2, §3
Experiment [4] has as its target MC5R (Homo sapiens, UniProt P33032). Briefly: Competitive binding with 125I-NDP-MSH, HEK293 membrane preparations, MC5R. Particulars: Ki MC5R, competition with 125I-NDP-MSH; cells noted in μM.
Protocol: as §1, §2, §3

MC1R, sequence (Q01726 whole entry): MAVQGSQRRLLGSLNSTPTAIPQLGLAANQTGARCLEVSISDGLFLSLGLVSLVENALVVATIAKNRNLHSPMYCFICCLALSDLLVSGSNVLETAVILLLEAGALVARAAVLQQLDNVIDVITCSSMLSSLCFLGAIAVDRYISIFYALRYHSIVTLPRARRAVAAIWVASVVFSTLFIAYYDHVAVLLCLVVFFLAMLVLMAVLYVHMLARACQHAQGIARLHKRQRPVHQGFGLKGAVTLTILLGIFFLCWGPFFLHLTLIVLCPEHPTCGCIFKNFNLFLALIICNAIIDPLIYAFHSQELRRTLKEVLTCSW
MC5R, sequence (P33032 whole entry): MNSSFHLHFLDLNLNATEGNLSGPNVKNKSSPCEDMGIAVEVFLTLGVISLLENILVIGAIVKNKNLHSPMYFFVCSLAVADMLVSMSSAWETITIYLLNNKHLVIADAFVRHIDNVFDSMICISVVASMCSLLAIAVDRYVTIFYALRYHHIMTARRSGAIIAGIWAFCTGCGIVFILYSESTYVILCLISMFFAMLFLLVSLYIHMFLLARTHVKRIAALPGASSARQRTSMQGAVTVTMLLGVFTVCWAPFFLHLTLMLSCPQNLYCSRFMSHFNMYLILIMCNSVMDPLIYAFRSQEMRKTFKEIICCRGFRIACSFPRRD
MC3R, sequence (P41968 whole entry): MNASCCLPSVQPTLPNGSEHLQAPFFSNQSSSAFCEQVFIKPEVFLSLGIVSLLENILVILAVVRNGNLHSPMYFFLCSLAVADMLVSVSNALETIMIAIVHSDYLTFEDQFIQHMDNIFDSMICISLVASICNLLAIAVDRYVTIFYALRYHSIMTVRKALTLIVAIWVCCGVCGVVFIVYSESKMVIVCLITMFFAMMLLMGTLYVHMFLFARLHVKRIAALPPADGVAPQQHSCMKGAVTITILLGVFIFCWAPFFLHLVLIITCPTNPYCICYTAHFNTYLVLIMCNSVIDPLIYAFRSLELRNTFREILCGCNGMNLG

For the molecule `C=C[C@@]1(C)CC(=O)[C@]2(O)[C@@]3(C)[C@@H](O)CCC(C)(C)[C@@H]3[C@H](O)[C@H](OC(C)=O)[C@@]2(C)O1` [Forskolin, reference compound], in experiment [1] (100 μM, positive control), the cAMP is 3455.39±406.6 and 3294.82±54.53.

For the molecule `CC(=O)N[C@@H](C(=O)N1CCC[C@@H]1C(=O)N[C@H](CCCCN)C(=O)NCC(=O)N[C@H](Cc1c[nH]c2ccccc12)C(=O)N[C@H](CCCNC(=N)N)C(=O)N[C@H](Cc1ccccc1)C(=O)N[C@H](Cc1c[nH]cn1)C(=O)N[C@H](CCC(=O)O)C(=O)N[C@H](C)C(=O)N[C@H](CO)C(=O)N[C@H](Cc1ccc(O)cc1)C(=O)N[C@H](CO)C(N)=O)C(C)C` [compound 807, vpkGwrfheasys] (Ac-[dV][dP][dK]G[dW][dR][dF][dH][dE][dA][dS][dY][dS]-NH2), the “cAMP levels (in words)” value in experiment [1] is reported as “reduction in cAMP accumulation”. In experiment [2], this molecule returned a Ki of 1400 ± 190 nM.

Take `CSCC[C@@H](NC(=O)[C@@H](CCC(=O)O)NC(=O)[C@@H](C)NC(=O)[C@@H](Cc1ccccc1)NC(=O)[C@@H](CCCNC(=N)N)NC(=O)[C@@H](Cc1c[nH]c2ccccc12)NC(=O)CNC(=O)[C@@H](CCCCN)NC(=O)[C@H]1CCCN1C(=O)[C@H](NC(C)=O)C(C)C)C(=O)N[C@H](CO)C(=O)N[C@H](Cc1ccc(O)cc1)C(=O)N[C@H](CO)C(N)=O` [compound 809, vpkGwrfaemsys] (Ac-[dV][dP][dK]G[dW][dR][dF][dA][dE][dM][dS][dY][dS]-NH2): the “cAMP levels (in words)” value in experiment [1] is “reduction in cAMP accumulation”. The affinity in experiment [2] corresponds to a Ki of 1200 ± 270 nM.

As for `CSCC[C@@H](NC(=O)[C@@H](CCC(=O)O)NC(=O)[C@@H](Cc1c[nH]cn1)NC(=O)[C@@H](C)NC(=O)[C@@H](CCCNC(=N)N)NC(=O)[C@@H](Cc1c[nH]c2ccccc12)NC(=O)CNC(=O)[C@@H](CCCCN)NC(=O)[C@H]1CCCN1C(=O)[C@H](NC(C)=O)C(C)C)C(=O)N[C@H](CO)C(=O)N[C@H](Cc1ccc(O)cc1)C(=O)N[C@H](CO)C(N)=O` [compound 810, vpkGwrahemsys], in experiment [1], the “cAMP levels (in words)” value is listed as “no increase in cAMP activity”.

Turning to `CSCC[C@@H](NC(=O)[C@@H](CCC(=O)O)NC(=O)[C@@H](Cc1c[nH]cn1)NC(=O)[C@@H](Cc1ccccc1)NC(=O)[C@@H](C)NC(=O)[C@@H](Cc1c[nH]c2ccccc12)NC(=O)CNC(=O)[C@@H](CCCCN)NC(=O)[C@H]1CCCN1C(=O)[C@H](NC(C)=O)C(C)C)C(=O)N[C@H](CO)C(=O)N[C@H](Cc1ccc(O)cc1)C(=O)N[C@H](CO)C(N)=O` [compound 811, vpkGwafhemsys] (Ac-[dV][dP][dK]G[dW][dA][dF][dH][dE][dM][dS][dY][dS]-NH2), the “cAMP levels (in words)” value in experiment [1] was “no increase in cAMP activity”.

In the case of `CSCC[C@@H](NC(=O)[C@@H](CCC(=O)O)NC(=O)[C@@H](Cc1c[nH]cn1)NC(=O)[C@@H](Cc1ccccc1)NC(=O)[C@@H](CCCNC(=N)N)NC(=O)[C@@H](C)NC(=O)CNC(=O)[C@@H](CCCCN)NC(=O)[C@H]1CCCN1C(=O)[C@H](NC(C)=O)C(C)C)C(=O)N[C@H](CO)C(=O)N[C@H](Cc1ccc(O)cc1)C(=O)N[C@H](CO)C(N)=O` [compound 812, vpkGarfhemsys] (Ac-[dV][dP][dK]G[dA][dR][dF][dH][dE][dM][dS][dY][dS]-NH2), the “cAMP levels (in words)” value in experiment [1] is reported as “no increase in cAMP activity”.

On to `CSCC[C@@H](NC(=O)[C@@H](CCC(=O)O)NC(=O)[C@@H](CCCNC(=N)N)NC(=O)[C@@H](Cc1ccccc1)NC(=O)[C@@H](CCCNC(=N)N)NC(=O)[C@@H](Cc1c[nH]c2ccccc12)NC(=O)CNC(=O)[C@@H](CCCCN)NC(=O)[C@H]1CCCN1C(=O)[C@H](NC(C)=O)C(C)C)C(=O)N[C@H](CO)C(=O)N[C@H](Cc1ccc(O)cc1)C(=O)N[C@H](CO)C(N)=O` [compound 872, vpkGwrfremsys], for which, in experiment [1], the concentration for a half-maximal effect (EC50) came out at 2000 nM. In experiment [2], the affinity, expressed as Ki, was 13.5 nM.

As for `CSCC[C@@H](NC(=O)[C@@H](CCC(=O)O)NC(=O)[C@@H](Cc1c[nH]c2ccccc12)NC(=O)[C@@H](Cc1ccccc1)NC(=O)[C@@H](CCCNC(=N)N)NC(=O)[C@@H](Cc1c[nH]c2ccccc12)NC(=O)CNC(=O)[C@@H](CCCCN)NC(=O)[C@H]1CCCN1C(=O)[C@H](NC(C)=O)C(C)C)C(=O)N[C@H](CO)C(=O)N[C@H](Cc1ccc(O)cc1)C(=O)N[C@H](CO)C(N)=O` [compound 873, vpkGwrfwemsys] (Ac-[dV][dP][dK]G[dW][dR][dF][dW][dE][dM][dS][dY][dS]-NH2), the inhibitory constant (Ki) in experiment [2] was found to be 1900 nM.

In experiment [2], `CSCC[C@@H](NC(=O)[C@@H](CC(=O)O)NC(=O)[C@@H](Cc1c[nH]cn1)NC(=O)[C@@H](Cc1ccccc1)NC(=O)[C@@H](CCCNC(=N)N)NC(=O)[C@@H](Cc1c[nH]c2ccccc12)NC(=O)CNC(=O)[C@@H](CCCCN)NC(=O)[C@H]1CCCN1C(=O)[C@H](NC(C)=O)C(C)C)C(=O)N[C@H](CO)C(=O)N[C@H](Cc1ccc(O)cc1)C(=O)N[C@H](CO)C(N)=O` [compound 875, vpkGwrfhdmsys] (Ac-[dV][dP][dK]G[dW][dR][dF][dH][dD][dM][dS][dY][dS]-NH2) showed a Ki of 400 nM.

As for `CSCC[C@@](C)(NC(=O)[C@@H](CCC(=O)O)NC(=O)[C@@H](Cc1c[nH]cn1)NC(=O)[C@@H](Cc1ccccc1)NC(=O)[C@@H](CCCNC(=N)N)NC(=O)[C@@H](Cc1c[nH]c2ccccc12)NC(=O)CNC(=O)[C@@H](CCCCN)NC(=O)[C@H]1CCCN1C(=O)[C@H](NC(C)=O)C(C)C)C(=O)N[C@H](CO)C(=O)N[C@H](Cc1ccc(O)cc1)C(=O)N[C@H](CO)C(N)=O` [compound 877, vpkGwrfhe(α-methyl-D-Met)sys], the inhibition constant Ki in experiment [2] is 282 nM.

In the case of `CC(=O)N[C@@H](C(=O)N1CCC[C@@H]1C(=O)N[C@H](CCCCN)C(=O)NCC(=O)N[C@H](Cc1c[nH]c2ccccc12)C(=O)N[C@H](CCCNC(=N)N)C(=O)N[C@H](Cc1ccccc1)C(=O)N[C@H](Cc1c[nH]cn1)C(=O)N[C@H](CCC(=O)O)C(=O)N[C@H](CCCCN)C(=O)N[C@H](CO)C(=O)N[C@H](Cc1ccc(O)cc1)C(=O)N[C@H](CO)C(N)=O)C(C)C` [compound 879, vpkGwrfheksys] (Ac-[dV][dP][dK]G[dW][dR][dF][dH][dE][dK][dS][dY][dS]-NH2), the affinity in experiment [2], expressed as Ki, was 832 nM.

In the case of `CCCCCCCCCCCCCCCCCC(=O)NCCCCCCNC(=O)[C@@H](Cc1c[nH]cn1)NC(=O)[C@H](Cc1ccccc1)NC(=O)[C@@H](CCCNC(=N)N)NC(=O)[C@@H](Cc1c[nH]c2ccccc12)NC(C)=O` [compound 882, wrFh] (Ac-[dW][dR]F[dH]-X1), in experiment [2] (relative to the unmodified tetrapeptide), the “improvement of binding to MC1R by stearyl addition to the core tetrapeptide” value was > 250 fold.

Take `CSCC[C@@H](NC(=O)[C@@H](CCC(=O)O)NC(=O)[C@@H](Cc1c[nH]cn1)NC(=O)[C@H](Cc1ccccc1)NC(=O)[C@@H](CCCNC(=N)N)NC(=O)[C@@H](Cc1c[nH]c2ccccc12)NC(=O)CNC(=O)[C@@H](CCCCN)NC(=O)[C@H]1CCCN1C(=O)[C@H](NC(C)=O)C(C)C)C(=O)N[C@H](CO)C(=O)N[C@H](Cc1ccc(O)cc1)C(=O)N[C@H](CO)C(N)=O` [compound 884, vpkGwrFhemsys]: the Ki was 72 nM in experiment [2], > 30000 nM in experiment [3] and > 30 µM in experiment [4]. Also, in experiment [2] (relative to RI-MSH), the “reduction in binding to MC1R, inversion of D-Phe to L-Phe in the RI sequence” value is recorded as 20 fold.

In experiment [1], `CSCC[C@H](NC(=O)[C@H](CO)NC(=O)[C@H](Cc1ccc(O)cc1)NC(=O)[C@H](CO)NC(C)=O)C(=O)N[C@@H](CCC(=O)O)C(=O)N[C@@H](Cc1c[nH]cn1)C(=O)N[C@@H](CC1CCCCC1)C(=O)N[C@@H](CCCNC(=N)N)C(=O)N[C@@H](Cc1c[nH]c2ccccc12)C(=O)NCC(=O)N[C@@H](CCCCN)C(=O)N1CCC[C@H]1C(=O)N[C@H](C(N)=O)C(C)C` [compound 892, SYSMEH(L-Cha)RWGKPV] had an EC50 of 21 nM. In experiment [2], this molecule registered a Ki of 0.51 nM.
